Source: patent US6706740B2, “Fungicidal heterocyclic aromatic amides and their compositions, methods of use and preparation” (Dow AgroSciences LLC, priority 1999, dated 2004)

tested on: Erysiphe graminis—ERYSGT; assay: Powdery Mildew of Wheat, in vivo whole plant, 24 Hour Protectant; conditions: Erysiphe; wheat plants sprayed at 100 ppm, inoculated after 24 hours; control of fungal infection vs untreated plants; read-out: ERYSGT in vivo 1 Day Protectant

| Structure (SMILES) | pest or weed control at 100 ppm [%] |
| --- | --- |
| CC(C)C(=O)O[C@H]1[C@H](C)OC(=O)[C@@H](NC(=O)c2nnc(O)nc2O)COC(=O)[C@@H]1Cc1ccccc1 [Compound 544] | < 25 |
| COC(=O)C(COC(=O)C(C)c1ccccc1)NC(=O)c1nccc(OC)c1OC(C)=O (centres unmarked) [Compound 581] | < 25 |
| COc1ccnc(C(=O)N[C@@H]2C[C@@H](C(F)(F)F)C[C@@H](C(F)(F)F)C2)c1OC(C)=O [Compound 577] | < 25 |
| N#Cc1ccc(Oc2cccc(NC(=O)c3nc(Br)ccc3O)c2)cc1 [Compound 500] | < 25 |

tested on: Puccinia recondita—PUCCRT; assay: Brown Rust of Wheat, in vivo whole plant, 24 Hour Protectant; conditions: Puccinia; wheat plants sprayed at 100 ppm, inoculated after 24 hours; control of fungal infection vs untreated plants; read-out: PUCCRT in vivo 1 Day Protectant

| Structure (SMILES) | pest or weed control at 100 ppm [%] |
| --- | --- |
| CC(C)C(=O)O[C@H]1[C@H](C)OC(=O)[C@@H](NC(=O)c2nnc(O)nc2O)COC(=O)[C@@H]1Cc1ccccc1 [Compound 544] | 25 to 74 |
| COC(=O)C(COC(=O)C(C)c1ccccc1)NC(=O)c1nccc(OC)c1OC(C)=O (centres unmarked) [Compound 581] | < 25 |
| COc1ccnc(C(=O)N[C@@H]2C[C@@H](C(F)(F)F)C[C@@H](C(F)(F)F)C2)c1OC(C)=O [Compound 577] | < 25 |
| N#Cc1ccc(Oc2cccc(NC(=O)c3nc(Br)ccc3O)c2)cc1 [Compound 500] | < 25 |

tested on: Ustilago maydis (USTIMA); assay: microbe, parasite or virus in culture; type: cell-based; conditions: Mycosarcoma maydis, read-out: USTIMA in vitro Growth Inhibition

| Structure (SMILES) | inhibition at 25 ppm [%] |
| --- | --- |
| CC(C)C(=O)O[C@H]1[C@H](C)OC(=O)[C@@H](NC(=O)c2nnc(O)nc2O)COC(=O)[C@@H]1Cc1ccccc1 [Compound 544] | < 80 |
| COC(=O)C(COC(=O)C(C)c1ccccc1)NC(=O)c1nccc(OC)c1OC(C)=O (centres unmarked) [Compound 581] | < 80 |
| COc1ccnc(C(=O)N[C@@H]2C[C@@H](C(F)(F)F)C[C@@H](C(F)(F)F)C2)c1OC(C)=O [Compound 577] | < 80 |
| N#Cc1ccc(Oc2cccc(NC(=O)c3nc(Br)ccc3O)c2)cc1 [Compound 500] | < 80 |

tested on: Stagonospora nodorum (Leptosphaeria nodorum—LEPTNO); assay: In vitro fungal growth inhibition, Stagonospora nodorum (LEPTNO); type: cell-based; conditions: Leptosphaeria; 25 ppm in the growth medium; read-out: LEPTNO in vitro Growth Inhibition

| Structure (SMILES) | inhibition at 25 ppm [%] |
| --- | --- |
| CC(C)C(=O)O[C@H]1[C@H](C)OC(=O)[C@@H](NC(=O)c2nnc(O)nc2O)COC(=O)[C@@H]1Cc1ccccc1 [Compound 544] | < 80 |
| COC(=O)C(COC(=O)C(C)c1ccccc1)NC(=O)c1nccc(OC)c1OC(C)=O (centres unmarked) [Compound 581] | < 80 |
| COc1ccnc(C(=O)N[C@@H]2C[C@@H](C(F)(F)F)C[C@@H](C(F)(F)F)C2)c1OC(C)=O [Compound 577] | < 80 |
| N#Cc1ccc(Oc2cccc(NC(=O)c3nc(Br)ccc3O)c2)cc1 [Compound 500] | < 80 |

tested on: Phytophthora infestans—PHYTIN; assay: whole plant or invertebrate; type: in vivo; conditions: Phytophthora, in Solanum lycopersicum, 24 h, read-out: PHYTIN in vivo 1 Day Protectant

| Structure (SMILES) | pest or weed control at 100 ppm [%] |
| --- | --- |
| CC(C)C(=O)O[C@H]1[C@H](C)OC(=O)[C@@H](NC(=O)c2nnc(O)nc2O)COC(=O)[C@@H]1Cc1ccccc1 [Compound 544] | < 25 |
| COC(=O)C(COC(=O)C(C)c1ccccc1)NC(=O)c1nccc(OC)c1OC(C)=O (centres unmarked) [Compound 581] | < 25 |
| COc1ccnc(C(=O)N[C@@H]2C[C@@H](C(F)(F)F)C[C@@H](C(F)(F)F)C2)c1OC(C)=O [Compound 577] | < 25 |
| N#Cc1ccc(Oc2cccc(NC(=O)c3nc(Br)ccc3O)c2)cc1 [Compound 500] | < 25 |

tested on: Septoria tritici—SEPTTR; assay: Leaf Blotch of Wheat, in vivo whole plant, 24 Hour Protectant; conditions: Zymoseptoria tritici, 24 h, wheat plants sprayed at 100 ppm, inoculated after 24 hours; control of fungal infection vs untreated plants; read-out: SEPTTR in vivo 1 Day Protectant

| Structure (SMILES) | pest or weed control at 100 ppm [%] |
| --- | --- |
| CC(C)C(=O)O[C@H]1[C@H](C)OC(=O)[C@@H](NC(=O)c2nnc(O)nc2O)COC(=O)[C@@H]1Cc1ccccc1 [Compound 544] | 25 to 74 |
| COC(=O)C(COC(=O)C(C)c1ccccc1)NC(=O)c1nccc(OC)c1OC(C)=O (centres unmarked) [Compound 581] | 25 to 74 |
| COc1ccnc(C(=O)N[C@@H]2C[C@@H](C(F)(F)F)C[C@@H](C(F)(F)F)C2)c1OC(C)=O [Compound 577] | 25 to 74 |
| N#Cc1ccc(Oc2cccc(NC(=O)c3nc(Br)ccc3O)c2)cc1 [Compound 500] | 25 to 74 |

tested on: Phytophthora infestans (PHYTIN); assay: microbe, parasite or virus in culture; type: cell-based; conditions: Phytophthora infestans, read-out: PHYTIN in vitro Growth Inhibition

| Structure (SMILES) | inhibition at 25 ppm [%] |
| --- | --- |
| CC(C)C(=O)O[C@H]1[C@H](C)OC(=O)[C@@H](NC(=O)c2nnc(O)nc2O)COC(=O)[C@@H]1Cc1ccccc1 [Compound 544] | < 80 |
| COC(=O)C(COC(=O)C(C)c1ccccc1)NC(=O)c1nccc(OC)c1OC(C)=O (centres unmarked) [Compound 581] | < 80 |
| COc1ccnc(C(=O)N[C@@H]2C[C@@H](C(F)(F)F)C[C@@H](C(F)(F)F)C2)c1OC(C)=O [Compound 577] | < 80 |
| N#Cc1ccc(Oc2cccc(NC(=O)c3nc(Br)ccc3O)c2)cc1 [Compound 500] | < 80 |

tested on: Mycosphaerella graminicola (Septoria tritici—SEPTTR); assay: In vitro fungal growth inhibition, Mycosphaerella graminicola (SEPTTR); type: cell-based; conditions: Zymoseptoria tritici; 25 ppm in the growth medium; read-out: SEPTTR in vitro Growth Inhibition

| Structure (SMILES) | inhibition at 25 ppm [%] |
| --- | --- |
| CC(C)C(=O)O[C@H]1[C@H](C)OC(=O)[C@@H](NC(=O)c2nnc(O)nc2O)COC(=O)[C@@H]1Cc1ccccc1 [Compound 544] | < 80 |
| COC(=O)C(COC(=O)C(C)c1ccccc1)NC(=O)c1nccc(OC)c1OC(C)=O (centres unmarked) [Compound 581] | < 80 |
| COc1ccnc(C(=O)N[C@@H]2C[C@@H](C(F)(F)F)C[C@@H](C(F)(F)F)C2)c1OC(C)=O [Compound 577] | < 80 |
| N#Cc1ccc(Oc2cccc(NC(=O)c3nc(Br)ccc3O)c2)cc1 [Compound 500] | < 80 |

tested on: Magnaporthe grisea (Pyricularia oryzae—PYRIOR); assay: microbe, parasite or virus in culture; type: cell-based; conditions: Pyricularia oryzae, read-out: PYRIOR in vitro Growth Inhibition

| Structure (SMILES) | inhibition at 25 ppm [%] |
| --- | --- |
| CC(C)C(=O)O[C@H]1[C@H](C)OC(=O)[C@@H](NC(=O)c2nnc(O)nc2O)COC(=O)[C@@H]1Cc1ccccc1 [Compound 544] | < 80 |
| COC(=O)C(COC(=O)C(C)c1ccccc1)NC(=O)c1nccc(OC)c1OC(C)=O (centres unmarked) [Compound 581] | < 80 |
| COc1ccnc(C(=O)N[C@@H]2C[C@@H](C(F)(F)F)C[C@@H](C(F)(F)F)C2)c1OC(C)=O [Compound 577] | < 80 |
| N#Cc1ccc(Oc2cccc(NC(=O)c3nc(Br)ccc3O)c2)cc1 [Compound 500] | < 80 |

tested on: Rhizoctonia solani (RHIZSO); assay: microbe, parasite or virus in culture; type: cell-based; conditions: Rhizoctonia solani, read-out: RHIZSO in vitro Growth Inhibition

| Structure (SMILES) | inhibition at 25 ppm [%] |
| --- | --- |
| CC(C)C(=O)O[C@H]1[C@H](C)OC(=O)[C@@H](NC(=O)c2nnc(O)nc2O)COC(=O)[C@@H]1Cc1ccccc1 [Compound 544] | < 80 |
| COC(=O)C(COC(=O)C(C)c1ccccc1)NC(=O)c1nccc(OC)c1OC(C)=O (centres unmarked) [Compound 581] | < 80 |
| COc1ccnc(C(=O)N[C@@H]2C[C@@H](C(F)(F)F)C[C@@H](C(F)(F)F)C2)c1OC(C)=O [Compound 577] | < 80 |
| N#Cc1ccc(Oc2cccc(NC(=O)c3nc(Br)ccc3O)c2)cc1 [Compound 500] | < 80 |

tested on: Leptosphaeria nodorum—LEPTNO; assay: Glume Blotch of Wheat, in vivo whole plant, 24 Hour Protectant; conditions: Leptosphaeria; wheat plants sprayed at 100 ppm, inoculated after 24 hours; control of fungal infection vs untreated plants; read-out: LEPTNO in vivo 1 Day Protectant

| Structure (SMILES) | pest or weed control at 100 ppm [%] |
| --- | --- |
| CC(C)C(=O)O[C@H]1[C@H](C)OC(=O)[C@@H](NC(=O)c2nnc(O)nc2O)COC(=O)[C@@H]1Cc1ccccc1 [Compound 544] | 25 to 74 |
| COC(=O)C(COC(=O)C(C)c1ccccc1)NC(=O)c1nccc(OC)c1OC(C)=O (centres unmarked) [Compound 581] | 25 to 74 |
| COc1ccnc(C(=O)N[C@@H]2C[C@@H](C(F)(F)F)C[C@@H](C(F)(F)F)C2)c1OC(C)=O [Compound 577] | 25 to 74 |
| N#Cc1ccc(Oc2cccc(NC(=O)c3nc(Br)ccc3O)c2)cc1 [Compound 500] | < 25 |
